In patent US7989464B2, “mGluR1 antagonists as therapeutic agents” (Schering Corporation, priority 2004, dated 2011):
Where two headings read alike, the source gives them in different places.

Target: T1, hmGluR1 receptor (Homo sapiens, UniProt Q13255)
T1 construct: expressed in transfected cells
Assay: IC50 determination: intracellular calcium mobilization (FLIPR) upon Quisqualate stimulation in CHO cells stably expressing hmGluR1
Format: cell-based
Conditions: against Quisqualate 1 μM (EC80)
Method in brief: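 CHO cells stably expressing hmGluR1 were kept overnight in DMEM high glucose with GPT and 1 mM pyruvate, then loaded 2 h with Calcium 3 dye.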

[1] = class symbols, read-out: mGIuR 1 IC50
[2] = FLIPR calcium mobilization, read-out: IC50 Class
[3] = FLIPR calcium mobilization, read-out: mGluR1 IC50

T1 sequence (Q13255 19-1194): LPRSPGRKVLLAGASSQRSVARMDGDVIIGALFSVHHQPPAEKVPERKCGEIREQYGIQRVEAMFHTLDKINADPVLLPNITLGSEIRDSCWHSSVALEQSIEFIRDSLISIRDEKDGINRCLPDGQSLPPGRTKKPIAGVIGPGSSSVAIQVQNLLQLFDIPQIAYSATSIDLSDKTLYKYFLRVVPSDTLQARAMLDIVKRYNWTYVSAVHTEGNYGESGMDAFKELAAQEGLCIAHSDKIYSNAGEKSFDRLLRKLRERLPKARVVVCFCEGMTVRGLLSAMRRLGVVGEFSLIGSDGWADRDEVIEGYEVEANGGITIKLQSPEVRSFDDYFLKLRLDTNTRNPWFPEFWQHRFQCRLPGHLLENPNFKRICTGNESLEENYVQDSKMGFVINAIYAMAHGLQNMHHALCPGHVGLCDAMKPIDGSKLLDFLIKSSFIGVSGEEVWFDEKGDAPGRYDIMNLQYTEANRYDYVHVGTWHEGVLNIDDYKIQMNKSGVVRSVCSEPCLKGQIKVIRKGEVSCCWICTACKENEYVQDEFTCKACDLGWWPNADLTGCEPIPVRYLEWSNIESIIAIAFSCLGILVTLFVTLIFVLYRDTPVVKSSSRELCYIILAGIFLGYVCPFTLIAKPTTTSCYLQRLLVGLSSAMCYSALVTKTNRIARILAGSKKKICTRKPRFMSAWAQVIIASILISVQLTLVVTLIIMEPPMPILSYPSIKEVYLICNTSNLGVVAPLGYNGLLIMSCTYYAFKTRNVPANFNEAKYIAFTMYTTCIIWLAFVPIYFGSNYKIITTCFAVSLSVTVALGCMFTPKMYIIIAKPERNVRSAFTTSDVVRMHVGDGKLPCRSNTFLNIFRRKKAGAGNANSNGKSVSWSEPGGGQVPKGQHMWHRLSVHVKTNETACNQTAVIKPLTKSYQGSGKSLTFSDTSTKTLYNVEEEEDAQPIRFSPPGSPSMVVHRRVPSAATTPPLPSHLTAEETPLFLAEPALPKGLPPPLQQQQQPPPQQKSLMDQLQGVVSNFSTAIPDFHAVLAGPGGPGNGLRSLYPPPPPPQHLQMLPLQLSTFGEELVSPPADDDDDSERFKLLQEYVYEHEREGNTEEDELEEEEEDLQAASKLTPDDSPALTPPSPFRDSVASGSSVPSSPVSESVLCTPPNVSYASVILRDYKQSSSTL

IC50 [1] [nM]	IC50 [2] [nM]	Structure (SMILES)	also measured
150 to 1000		CN(C)c1ccnc2sc3c(=O)n(C4CCC5(CC4)OCCO5)cnc3c12 [compound 19]	
	150 to 1000	CCNc1ccnc2sc3c(=O)n(-c4ccncc4)cnc3c12 [28EG]	
150 to 1000		CN(C)c1cncc2sc3c(=O)n(-c4ccc5scnc5c4)cnc3c12 [37B]	
	150 to 1000	O=c1c2sc3ncc(Br)c(NC4CC4)c3c2ncn1-c1ccc(Cl)cc1 [28EI]	
	> 1000	COc1ccc(Nc2ncnc3sc4c(=O)n(-c5ccc(F)cc5)cnc4c23)cc1 [95GK]	
	< 50	Cc1ccc(-n2cnc3c(sc4nc(C)nc(N)c43)c2=O)cc1 [95ET]	
	< 50	CCNc1ccnc2sc3c(=O)n(-c4cccc(Cl)c4)cnc3c12 [28CD]	
	50 to 150	Cc1ccc(-n2cnc3c(sc4nccc(NC(C)(C)CO)c43)c2=O)cc1 [28EX]	
	> 1000	Cc1ccc(-n2cnc3c(sc4ncnc(NCC(C)(C)C)c43)c2=O)cc1 [95FP]	
	< 50	COc1ccc(-n2cnc3c(sc4nccc(N(C)N)c43)c2=O)cc1 [28DO]	
< 50		CCN(C)c1ncnc2sc3c(=O)n(-c4ccc(SC)cc4)cnc3c12 [95L]	
50 to 150		COc1ccc(-n2cnc3c(sc4nc(C)cc(N(C)C)c43)c2=O)cc1F [7CL]	
> 1000		O=c1c2sc3nccc(NCc4ccccc4)c3c2ncn1C1CCCCC1 [72E]	
150 to 1000		CCCc1ccc(-n2cnc3c(sc4nccc(N(C)C)c43)c2=O)cc1 [7BK]	
< 50		C#CCNc1ccnc2sc3c(=O)n(-c4ccc(C)cc4)c(C)nc3c12 [113K]	
	150 to 1000	COc1ccnc2sc3c(=O)n(-c4ccc5c(c4)CCO5)cnc3c12 [25F]	
	> 1000	COc1ccnc2sc3c(=O)n(-c4ccc(C5CC5)cc4)cnc3c12 [137H]	
	< 50	COCCCNc1ccnc2sc3c(=O)n(-c4ccc(Cl)cc4)cnc3c12 [28GN]	
< 50		CCNc1ccnc2sc3c(=O)n(C4CCCCC4)cnc3c12 [28P]	
	150 to 1000	CN(C)c1ccnc2sc3c(=O)n(CCc4c(Cl)cccc4Cl)cnc3c12 [28EN]	
< 50		CN(C)c1ncnc2sc3c(=O)n(-c4ccc5c(c4)CCO5)cnc3c12 [95E]	
> 1000		O=c1c2sc3nc(Cl)ccc3c2ncn1-c1ccccc1 [compound 14]	
	< 50	Nc1c(Br)cnc2sc3c(=O)n(-c4ccc(Cl)cc4)cnc3c12 [compound 196]	
> 1000		Cc1ccc(-n2cnc3c(sc4nc(N5CCOCC5)cc(N(C)C)c43)c2=O)cc1 [59C]	

IC50 [1] [nM]	IC50 [2] [nM]	Structure (SMILES)	also measured
50 to 150		CN(C)c1cc(Cl)nc2sc3c(=O)n(C4CCCCC4)cnc3c12 [compound 83]	
	< 50	C#CCN(C)c1ccnc2sc3c(=O)n(-c4ccc(OC)cc4)cnc3c12 [28DU]	
	> 1000	Cc1ccc(-n2cnc3c(sc4cnnc(Cl)c43)c2=O)cc1 [compound 166]	
	< 50	C#CCNc1ccnc2sc3c(=O)n(-c4ccc(Br)cc4)cnc3c12 [28DP]	IC50 [3]: 1.75 nM
> 1000		CN(C)c1ccnc2sc3c(=O)n(Cc4ccc(Cl)cc4)cnc3c12 [7I]	
> 1000		O=C1CCCN1c1ccnc2sc3c(=O)n(C4CCCCC4)cnc3c12 [30C]	
> 1000		O=c1c2sc3nccc(-n4cccn4)c3c2ncn1C1CCCCC1 [30B]	
> 1000		Cc1ccc(-n2cnc3c(sc4nc(N5CCNCC5)cc(N(C)C)c43)c2=O)cc1 [59B]	
	150 to 1000	COCC(C)Nc1ccnc2sc3c(=O)n(-c4ccc(Br)cc4)cnc3c12 (stereo not drawn) [28HA]	
	> 1000	Cc1ccc(-n2cnc3c(sc4cnnc(NCC(F)(F)F)c43)c2=O)cc1 [167G]	
	> 1000	Cc1noc2cc(F)c(-n3cnc4c(sc5nccc(N(C)C)c54)c3=O)cc12 [28EL]	
50 to 150		COc1ccnc2sc3c(=O)n(-c4ccc(C)cc4)cnc3c12 [25C]	
	50 to 150	Cc1ccc(-n2cnc3c(sc4ncnc(NCC5CC5)c43)c2=O)cc1 [95DP]	
	150 to 1000	O=c1c2sc3ncnc(NC4CCC4)c3c2ncn1-c1ccc(Cl)cc1 [95DD]	
> 1000		CN(C)c1ccnc2sc3c(=O)n(-c4ccc5c(c4)CC(=O)N5)cnc3c12 [7BE]	
< 50		CC(=O)Oc1ccc(-n2cnc3c(sc4nccc(N(C)C)c43)c2=O)cc1 [compound 138]	
	< 50	CN(C)c1ncnc2sc3c(=O)n(-c4ccc(Br)cc4F)cnc3c12 [95AR]	
	> 1000	Cc1ccc(-n2cnc3c(sc4nc(N5CCCC5)nc(N)c43)c2=O)cc1 [71C]	
	< 50	COc1ccc(-n2cnc3c(sc4nc(N)cc(NC5CC5)c43)c2=O)cc1 [59G]	
< 50		CN(C)c1ccnc2sc3c(=O)n(-c4csc5ccccc45)cnc3c12 [15AG]	
	50 to 150	C#CCNc1ncnc2sc3c(=O)n(-c4ccc5c(c4)OCO5)cnc3c12 [95EO]	
150 to 1000		CN(C)c1ccnc2sc3c(=O)n(Cc4cccs4)cnc3c12 [15I]	
	< 50	Cc1ccc(-n2cnc3c(sc4nccc(NCCC(C)O)c43)c2=O)cc1 (stereo not drawn) [28CY]	
< 50		COc1cccc(-n2cnc3c(sc4nccc(N(C)C)c43)c2=O)c1 [7AA]	

IC50 [1] [nM]	IC50 [2] [nM]	Structure (SMILES)	also measured
50 to 150		CC(c1ccccc1)n1cnc2c(sc3nccc(N(C)C)c32)c1=O (stereo not drawn) [7AH]	
	< 50	COc1ccc(-n2cnc3c(sc4nccc(N(C)CC(O)CO)c43)c2=O)cc1 (stereo not drawn) [28HV]	
50 to 150		Cc1cc(N(C)C)c2c(n1)sc1c(=O)n(-c3ccc4ncsc4c3)cnc12 [7CO]	
> 1000		COc1ccc(C(=O)Nc2ccnc3sc4c(=O)n(C5CCCCC5)cnc4c23)cc1 [73F]	
150 to 1000		CC(=O)Nc1cccc(-n2cnc3c(sc4nccc(N(C)C)c43)c2=O)c1 [7CI]	
> 1000		COc1cc(O)nc2sc3c(=O)n(C4CCCCC4)cnc3c12 [compound 80]	
< 50		C=CCNc1ccnc2sc3c(=O)n(C4CCCCC4)cnc3c12 [72B]	
	< 50	C=CCNc1ccnc2sc3c(=O)n(-c4ccc(OC)cc4)cnc3c12 [28DS]	IC50 [3]: 1.95 nM
> 1000		Cc1ccc(-n2cnc3c(sc4nccc(C(=O)O)c43)c2=O)cc1 [compound 77]	
< 50		CN(C)c1ccnc2sc3c(=O)n(-c4ccc5sccc5c4)cnc3c12 [7BM]	IC50 [3]: 1.48 nM
	150 to 1000	CC(C)Nc1ccnc2sc3c(=O)n(-c4ccc(Br)cc4)cnc3c12 [28HD]	
50 to 150		Cc1ccc(-n2cnc3c(sc4nccc(N(C)C)c43)c2=O)cc1C#N [7DP]	
	< 50	C=C(C)CNc1ncnc2sc3c(=O)n(-c4ccc(C)cc4)cnc3c12 [95EY]	
> 1000		O=c1c2sc3nccc(N4CCC(O)CC4)c3c2ncn1C1CCCCC1 [28AF]	
	> 1000	COc1ccnc2sc3c(=O)n(-c4ccc(Cl)cc4Cl)cnc3c12 [28FV]	
< 50		Cc1ccc(-n2cnc3c(sc4nccc(NCC(F)(F)F)c43)c2=O)cc1 [28AU]	
150 to 1000		CN(C)c1ccnc2sc3c(=O)n([C@H]4CC[C@H](O)CC4)cnc3c12 [15T]	
	150 to 1000	COCCCNc1ccnc2sc3c(=O)n(-c4ccc(OS(=O)(=O)C(F)(F)F)cc4)cnc3c12 [28HX]	
	150 to 1000	Cc1ccc(-n2cnc3c(sc4nc(NS(C)(=O)=O)cc(N(C)C)c43)c2=O)cc1 [28FL]	
	< 50	Cc1ccc(-n2cnc3c(sc4nccc(NCCCCO)c43)c2=O)cc1 [28CT]	
	< 50	COc1ccc(-n2cnc3c(sc4nccc(NCCO)c43)c2=O)cc1 [28DB]	
	< 50	O=c1c2sc3nccc(NC4CC4)c3c2ncn1-c1ccc(Br)cc1 [28GY]	
	< 50	CSCCNc1ccnc2sc3c(=O)n(-c4ccc(C)cc4)cnc3c12 [28EV]	
	< 50	O=c1c2sc3nccc(NCCCO)c3c2ncn1-c1ccc(F)cc1 [28GP]	

IC50 [1] [nM]	IC50 [2] [nM]	Structure (SMILES)	also measured
	50 to 150	COc1ccc(Nc2ncnc3sc4c(=O)n(-c5ccc(C)cc5)cnc4c23)cc1 [95GJ]	
150 to 1000		CC(C)c1ccc(-n2cnc3c(sc4nccc(N(C)C)c43)c2=O)cc1 [7BA]	
	< 50	COc1ccc(-n2cnc3c(sc4nccc(NC5CC5)c43)c2=O)cc1F [28HE]	
> 1000		O=c1c2sc3nccc(N4CCN(CC5CC5)CC4)c3c2ncn1C1CCCCC1 [61B]	
< 50		CCCN(C)c1ccnc2sc3c(=O)n(-c4ccc(C)cc4)cnc3c12 [28AT]	
	< 50	Cc1ccc(-n2cnc3c(sc4ncc(Br)c(N)c43)c2=O)cc1 [173A]	
	150 to 1000	O=c1c2sc3ncnc(NCC4CC4)c3c2ncn1-c1ccc(Br)cc1 [95DS]	
150 to 1000		CNc1c([N+](=O)[O-])cnc2sc3c(=O)n(C4CCCCC4)cnc3c12 [compound 52]	
	50 to 150	C#CCOc1ncnc2sc3c(=O)n(-c4ccc(C)cc4)cnc3c12 [66M]	
< 50		CN(C)c1ccnc2sc3c(=O)n(-c4ccc(C#N)cc4)cnc3c12 [7K]	
	50 to 150	Cc1nc(N)c2c(n1)sc1c(=O)n(-c3ccc(F)cc3)cnc12 [95EW]	
	< 50	O=c1c2sc3nccc(NCCCO)c3c2ncn1-c1ccc2c(c1)CCO2 [28CJ]	
> 1000		Cc1ccc(-n2cnc3c(sc4nccc(OC5CCCC5)c43)c2=O)cc1 [66C]	
> 1000		CCC(=O)Nc1ccnc2sc3c(=O)n(C4CCCCC4)cnc3c12 [73A]	
> 1000		CC(=O)Nn1c(C)nc2c(sc3nccc(N(C)C)c32)c1=O [65A]	
150 to 1000		CCCCc1nc2c(sc3nccc(N(C)C)c32)c(=O)n1-c1ccc(C)cc1 [116C]	
< 50		CN(C)c1ccnc2sc3c(=O)n(-c4ccc(OC(F)(F)F)cc4)cnc3c12 [7Y]	
50 to 150		CCOC(=O)c1cnc2sc3c(=O)n(-c4ccc(C)cc4)cnc3c2c1 [144A]	
	< 50	CCN(C)c1ccnc2sc3c(=O)n(-c4ccc5c(c4)OCCO5)cnc3c12 [28CG]	
	50 to 150	C=CCN(C)c1ccnc2sc3c(=O)n(-c4ccc(Br)cc4)cnc3c12 [28EB]	
150 to 1000		CN(C)c1cccc2sc3c(=O)n(-c4ccccc4)cnc3c12 [103C]	
< 50		Cc1ccc(F)c(-n2cnc3c(sc4nccc(N(C)C)c43)c2=O)c1 [7DZ]	
150 to 1000		COc1ccc(-n2cnc3c(sc4cncc(N(C)C)c43)c2=O)cc1F [37G]	
< 50		CSc1ccc(-n2cnc3c(sc4nccc(N(C)C)c43)c2=O)cc1 [7CQ]	
